US20160325113A1, “Phototherapy Devices and Methods Comprising Optionally Substituted Quinquiesphenyl Compounds” (NITTO DENKO CORPORATION, priority 2012, published 2016)
Where two headings read alike, the source gives them in different places.

Legend:
[1] = tested on: actinic keratoses lesions; test: Topical photosensitizer plus red OLED illumination of actinic keratoses lesions; conditions: 20% topical solution; illuminated with red OLED about 14-18 hours after application
Description: About 14-18 hours after application, the treated lesions are illuminated with a red light-emitting OLED device constructed as set forth in Example 2.
The treatment is repeated as needed.
The excess cream is removed with saline, and the lesions are illuminated with the red light-emitting OLED constructed as set forth in Example 2.

[2] = design: species or system person; conditions: in vivo, iv
[3] = Intravenous verteporphin plus red OLED illumination of the retina, pathological myopia; type: in vivo, person; conditions: about 6 mg/m^2 i.v.; retina illuminated with red OLED about 15 minutes after start of infusion
Description: Verteporphin is intravenously injected, over a period of about 10 minutes at a rate of about 3 mL/min, to a person suffering from pathological myopia. The verteporphin (7.5 mL of 2 mg/mL reconstituted solution, available as Visudyne® from Novartis) is diluted with 5% dextrose to a volume of 30 mL using a sufficient quantity of the reconstituted verteporphin so that the total dose injected is about 6 mg/m^2 of body surface. About 15 minutes after the start of the 10 minute infusion of verteporphin, the verteporphin is activated by illuminating the retina with a red light-emitting OLED device as set forth in Example 2. […] The treatment is repeated as needed.

[4] = Intravenous verteporphin plus red OLED illumination of the retina, age-related macular degeneration; type: in vivo, person; conditions: about 6 mg/m^2 i.v.; retina illuminated with red OLED about 15 minutes after start of infusion
Description: Verteporphin is intravenously injected, over a period of about 10 minutes at a rate of about 3 mL/min, to a person suffering from age-related macular degeneration. The verteporphin (7.5 mL of 2 mg/mL reconstituted solution, available as Visudyne® from Novartis) is diluted with 5% dextrose to a volume of 30 mL using a sufficient quantity of the reconstituted verteporphin so that the total dose injected is about 6 mg/m^2 of body surface. About 15 minutes after the start of the 10 minute infusion of verteporphin, the verteporphin is activated by illuminating the retina with a red light-emitting OLED device as set forth in Example 2.

Structure (SMILES)	number or severity of the lesions after treatment [1]	patient's vision after treatment [2]	patient's vision after treatment [3]	patient's vision after treatment [4]
Cl.NCC(=O)CCC(=O)O [5-Aminolevulinic acid HCl]	reduced	–	–	–
C=Cc1c(C)c2cc3nc(cc4[nH]c(cc5nc(cc1[nH]2)C(C)=C5CCC(=O)O)c(CCC(=O)OC)c4C)[C@@]1(C)C3=CC=C(C(=O)OC)[C@H]1C(=O)OC [Verteporphin]	–	stabilized	stabilized	stabilized
